The experiment concerns the target T1, MAGL (Homo sapiens, UniProt Q99685).
T1 sequence (Q99685 1-303): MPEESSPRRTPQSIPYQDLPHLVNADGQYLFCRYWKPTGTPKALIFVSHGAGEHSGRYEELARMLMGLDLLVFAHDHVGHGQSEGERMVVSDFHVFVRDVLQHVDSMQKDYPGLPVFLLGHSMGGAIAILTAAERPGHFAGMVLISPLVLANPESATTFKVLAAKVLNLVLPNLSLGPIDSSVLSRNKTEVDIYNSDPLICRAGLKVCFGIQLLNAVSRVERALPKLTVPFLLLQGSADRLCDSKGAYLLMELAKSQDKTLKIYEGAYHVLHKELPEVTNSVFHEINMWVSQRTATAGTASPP
The experiment in a line: 2-AG assay: MAGL inhibitory activity by hydrolysis of 2-arachidonoylglycerol to arachidonic acid, mass spectrometry. In kind it is biochemical. The settings on record: 2-AG assay (values marked [b]). In short, it runs like this: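 Hydrolysis of 8 μM 2-arachidonoylglycerol by […] was run for 30 min at RT after a 15 min compound preincubation, in Tris/EDTA/Tween buffer. Test compounds spanned […]. The product was measured by online SPE-MS/MS (transitions 303.1→259.1 and 311.1→267.0), and activity was derived from the arachidonic acid/d8-arachidonic acid signal ratio.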

The term IC50 denotes the point on the concentration scale where inhibition reaches its midpoint. A lower IC50 goes with higher potency. For the molecule `Cc1ccc2oc(N3CCN(C(=O)c4cnc(-c5cnn(CC(C)(C)C)c5)c(C(F)(F)F)c4)CC3)nc2n1` [Example 282, [6-[1-(2,2-dimethylpropyl)pyrazol-4-yl]-5-(trifluoromethyl)-3-pyridyl]-[4-(5-methyloxazolo[4,5-b]pyridin-2-yl)piperazin-1-yl]methanone], the concentration for half-maximal inhibition (IC50) stood at 11 nM.
With `Cc1cc(C(=O)N2CCN(c3nc4nc(Cl)ccc4o3)CC2)cnc1OCC1(C#N)CC1` [Example 163, 1-(((5-(4-(5-chlorooxazolo[4,5-b]pyridin-2-yl)piperazine-1-carbonyl)-3-methylpyridin-2-yl)oxy)methyl)cyclopropane-1-carbonitrile], the IC50 worked out at 677 nM.
As for `Cc1ccc2oc(N3CCN(C(=O)c4cnc(-c5cnn(CC(C)(C)C)n5)c(F)c4)CC3)nc2n1` [Example 245, (5-fluoro-6-(2-neopentyl-2H-1,2,3-triazol-4-yl)pyridin-3-yl)(4-(5-methyloxazolo[4,5-b]pyridin-2-yl)piperazin-1-yl)methanone], the figure is 57 nM; as for `Cc1ccc2oc(N3CCN(C(=O)c4ccc(-c5nnc(C(C)(C)C)o5)c(C(F)(F)F)c4)CC3)nc2n1` [Example 121, [4-(5-tert-butyl-1,3,4-oxadiazol-2-yl)-3-(trifluoromethyl)phenyl]-[4-(5-methyloxazolo[4,5-b]pyridin-2-yl)piperazin-1-yl]methanone], 13 nM.
`Cc1ccc2oc(N3CCN(C(=O)c4ccc(-n5cnc(C(C)(C)C)n5)c(C)c4)CC3)nc2n1` [Example 288, [4-(3-tert-butyl-1,2,4-triazol-1-yl)-3-methyl-phenyl]-[4-(5-methyloxazolo[4,5-b]pyridin-2-yl)piperazin-1-yl]methanone] showed a concentration for half-maximal inhibition (IC50) of 175 nM.
For `CC(C)(C)c1nnc(-c2ccc(C(=O)N3CCN(c4nc5nc(Cl)ccc5o4)CC3)cc2F)o1` [Example 281, [4-(5-tert-butyl-1,3,4-oxadiazol-2-yl)-3-fluoro-phenyl]-[4-(5-chlorooxazolo[4,5-b]pyridin-2-yl)piperazin-1-yl]methanone], inhibition was half-maximal at 36 nM (IC50).
As for `CC(C)(C)c1nc(-c2ccc(C(=O)N3CCN(c4nc5nc(Cl)ccc5o4)CC3)cc2Cl)no1` [Example 78, [4-(5-tert-butyl-1,2,4-oxadiazol-3-yl)-3-chloro-phenyl]-[4-(5-chlorooxazolo[4,5-b]pyridin-2-yl)piperazin-1-yl]methanone], the figure is 4 nM; as for `Cc1ccc2oc(N3CCN(C(=O)c4ccc(-c5cn(C(C)(C)CF)nn5)cc4)CC3)nc2n1` [Example 135, (4-(1-(1-fluoro-2-methylpropan-2-yl)-1H-1,2,3-triazol-4-yl)phenyl)(4-(5-methyloxazolo[4,5-b]pyridin-2-yl)piperazin-1-yl)methanone], 116 nM; as for `Cc1ccc2oc(N3CCN(C(=O)c4ccc(OCC5(C(F)(F)F)CC5)nc4Cl)CC3)nc2n1` [Example 296, [2-chloro-6-[[1-(trifluoromethyl)cyclopropyl]methoxy]-3-pyridyl]-[4-(5-methyloxazolo[4,5-b]pyridin-2-yl)piperazin-1-yl]methanone], 2620 nM.
`Cc1cc(C(=O)N2CCN(c3nc4nc(Cl)ccc4o3)CC2)cnc1-n1cc(C(C)(C)C)cn1` [Example 120, [6-(4-tert-butylpyrazol-1-yl)-5-methylpyridin-3-yl]-[4-(5-chloro-[1,3]oxazolo[4,5-b]pyridin-2-yl)piperazin-1-yl]methanone] gave a half-inhibitory concentration (IC50) of 4 nM.
With `Cc1ccc2oc(N3CCN(C(=O)c4ccc(OCC5(C(F)(F)F)CC5)c(C)n4)CC3)nc2n1` [Example 139, [4-(5-methyloxazolo[4,5-b]pyridin-2-yl)piperazin-1-yl]-[6-methyl-5-[[1-(trifluoromethyl)cyclopropyl]methoxy]-2-pyridyl]methanone], the half-inhibitory concentration (IC50) was found to be 387 nM.
`Cc1ccc2oc(N3CCN(C(=O)c4ccc(-c5nnc(C(C)(C)C)o5)c(C)c4)CC3)nc2n1` [Example 82, [4-(5-tert-butyl-1,3,4-oxadiazol-2-yl)-3-methyl-phenyl]-[4-(5-methyloxazolo[4,5-b]pyridin-2-yl)piperazin-1-yl]methanone] displayed a concentration for half-maximal inhibition (IC50) of 37 nM.
The molecule `COc1cc(C(=O)N2CCN(c3nc4nc(C)ccc4o3)CC2)cnc1OCC1(C(F)(F)F)CC1` [Example 169, [5-methoxy-6-[[1-(trifluoromethyl)cyclopropyl]methoxy]-3-pyridyl]-[4-(5-methyloxazolo[4,5-b]pyridin-2-yl)piperazin-1-yl]methanone] showed an IC50 of 138 nM.
Take `Cc1ccc2oc(N3CCN(C(=O)c4ccc(-c5cn(C6(C(F)(F)F)CC6)nn5)cc4)CC3)nc2n1` [Example 108, [4-(5-methyl-[1,3]oxazolo[4,5-b]pyridin-2-yl)piperazin-1-yl]-[4-[1-[1-(trifluoromethyl)cyclopropyl]triazol-4-yl]phenyl]methanone]: inhibition was half-maximal at 154 nM (IC50).
Molecule `Cc1ccc2oc(N3CCN(C(=O)c4cc(F)c(-c5cnn(CC(C)(C)C)n5)c(F)c4)CC3)nc2n1` [Example 92, (3,5-difluoro-4-(2-neopentyl-2H-1,2,3-triazol-4-yl)phenyl)(4-(5-methyloxazolo[4,5-b]pyridin-2-yl)piperazin-1-yl)methanone] came in with a half-maximal inhibitory concentration (IC50) of 10 nM.
`CC(C)(C)Cn1cc(-c2ccc(C(=O)N3CCN(c4nc5nc(Cl)ccc5o4)CC3)cc2C#N)nn1` [Example 233, 5-(4-(5-chlorooxazolo[4,5-b]pyridin-2-yl)piperazine-1-carbonyl)-2-(1-neopentyl-1H-1,2,3-triazol-4-yl)benzonitrile] registered an IC50 of 20 nM.
Then `O=C(c1ccc(OCC2(C(F)(F)F)CC2)nc1Cl)N1CCN(c2nc3nc(Cl)ccc3o2)CC1` [Example 276, [4-(5-chlorooxazolo[4,5-b]pyridin-2-yl)piperazin-1-yl]-[2-chloro-6-[[1-(trifluoromethyl)cyclopropyl]methoxy]-3-pyridyl]methanone], with 1520 nM; and `Cn1c(-c2ccc(C(=O)N3CCN(c4nc5nc(Cl)ccc5o4)CC3)cc2)nnc1C(C)(C)C` [Example 76, [4-(5-tert-butyl-4-methyl-1,2,4-triazol-3-yl)phenyl]-[4-(5-chlorooxazolo[4,5-b]pyridin-2-yl)piperazin-1-yl]methanone], with 1310 nM.
As for `O=C(c1ccc(-c2cn(CC(F)(F)F)nn2)cc1)N1CCN(c2nc3nc(Cl)ccc3o2)CC1` [Example 98, (4-(5-chlorooxazolo[4,5-b]pyridin-2-yl)piperazin-1-yl)(4-(1-(2,2,2-trifluoroethyl)-1H-1,2,3-triazol-4-yl)phenyl)methanone], half-maximal inhibition (IC50) required 144 nM.
Then `Cc1ccc2oc(N3CCN(C(=O)c4ccc(-c5nc(C(C)(C)C)nn5C)cc4)CC3)nc2n1` [Example 127, [4-(5-tert-butyl-2-methyl-1,2,4-triazol-3-yl)phenyl]-[4-(5-methyloxazolo[4,5-b]pyridin-2-yl)piperazin-1-yl]methanone], with 228 nM.
`Cc1ccc2oc(N3CCN(C(=O)c4ccc(-c5cn(CC6COC6)nn5)cc4)CC3)nc2n1` [Example 113, [4-(5-methyl-[1,3]oxazolo[4,5-b]pyridin-2-yl)piperazin-1-yl]-[4-[1-(oxetan-3-ylmethyl)triazol-4-yl]phenyl]methanone] gave a half-maximal inhibitory concentration (IC50) of 4270 nM.
Take `Cc1ccc2oc(N3CCN(C(=O)c4ccc(-c5ncn(C(C)(C)C)n5)c(Cl)c4)CC3)nc2n1` [Example 89, (4-(1-(tert-butyl)-1H-1,2,4-triazol-3-yl)-3-chlorophenyl)(4-(5-methyloxazolo[4,5-b]pyridin-2-yl)piperazin-1-yl)methanone]: 25 nM corresponded to half-maximal inhibition (IC50).
In turn, `Cc1ccc2oc(N3CCN(C(=O)c4ccc(-c5noc(C(C)(C)C)n5)c(Cl)c4)CC3)nc2n1` [Example 79, [4-(5-tert-butyl-1,2,4-oxadiazol-3-yl)-3-chloro-phenyl]-[4-(5-methyloxazolo[4,5-b]pyridin-2-yl)piperazin-1-yl]methanone] had an IC50 of 24 nM.
As for `CC(C)(C)Cn1cc(-c2ncc(C(=O)N3CCN(c4nc5nc(Cl)ccc5o4)CC3)cc2C(F)(F)F)cn1` [Example 279, [4-(5-chlorooxazolo[4,5-b]pyridin-2-yl)piperazin-1-yl]-[6-[1-(2,2-dimethylpropyl)pyrazol-4-yl]-5-(trifluoromethyl)-3-pyridyl]methanone], half-maximal inhibition (IC50) required 11 nM.
Take `CC(C)(C)n1cc(-c2ccc(C(=O)N3CCN(c4nc5nc(Cl)ccc5o4)CC3)cc2)nn1` [Example 88, (4-(1-(tert-butyl)-1H-1,2,3-triazol-4-yl)phenyl)(4-(5-chlorooxazolo[4,5-b]pyridin-2-yl)piperazin-1-yl)methanone]: the IC50 came to 71 nM.

For the origin of these results see patent US20220135591A1, “HETEROCYCLIC COMPOUNDS AS INHIBITORS OF MONOACYLGLYCEROL LIPASE (MAGL)” (Hoffmann-La Roche Inc., priority 2019, published 2022).
